Several values for one entry are separate records, joined by “and”; a condition that tells them apart may be missing. Identical values can stand only once.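 Five compound concentrations were applied to cells in 96-well plates for 48 hours; endpoints were derived by simple linear interpolation of the resulting dose-response curve. GI50 = concentration required for 50% inhibition of growth. TGI marks complete inhibition of growth.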

Among the test systems are HS 578T breast; RPMI-8226 leukemia; OVCAR-5 ovarian; MOLT-4 leukemia; CCRF-CEM leukemia; SN12C renal; LOX IMVI melanoma.
Holding throughout (experiment): growth of human tumour cells (NCI), 48 h

In the case of `CCOc1ccc(N/C(=C(/C(Cl)=C(/Cl)NC(C)(C)C)[N+](=O)[O-])n2nnc3ccccc32)cc1`, the TGI in the assay on HS 578T breast is 32.6 µM; in the assay on RPMI-8226 leukemia, above 100 µM; in the assay with OVCAR-5 ovarian it was above 100 µM; in the assay with MOLT-4 leukemia it was above 100 µM; with CCRF-CEM leukemia, above 100 µM; in the assay on SN12C renal it was above 100 µM.

Regarding `COc1ccc(-c2c(C#N)c(S)n(NS(=O)(=O)c3ccccc3)c(=O)c2C#N)cc1`, the TGI was above 100 µM in the assay with HS 578T breast; 98.4 µM with RPMI-8226 leukemia; above 100 µM with OVCAR-5 ovarian; above 100 µM with MOLT-4 leukemia; above 100 µM in the assay on LOX IMVI melanoma; above 100 µM in the assay on CCRF-CEM leukemia. The same compound came in with a TGI with SN12C renal above 100 µM.

Consider `CCN1CN(c2ccccc2)C2(CCN(CC(CC3OCCO3)c3ccc(F)cc3)CC2)C1=O` (centres undefined), for which the TGI in the assay on HS 578T breast is above 64.1 µM; in the assay with RPMI-8226 leukemia, 60.2 µM; in the assay with OVCAR-5 ovarian, 25.4 µM; in the assay on MOLT-4 leukemia it was above 67 µM; in the assay on LOX IMVI melanoma, 35.1 µM; with CCRF-CEM leukemia it was above 43.1 µM. This compound showed a TGI in the assay on SN12C renal above 89.5 µM.

For `OC1CSc2nc3ccccc3n2C1` (centres undefined), the TGI in the assay on HS 578T breast is 77.7 µM; in the assay with RPMI-8226 leukemia it was above 100 µM; with OVCAR-5 ovarian, above 100 µM; with MOLT-4 leukemia it was above 100 µM; with LOX IMVI melanoma it was above 100 µM; in the assay with CCRF-CEM leukemia, above 100 µM. Besides, in the assay with SN12C renal, the TGI was above 100 µM.

Consider `N#Cc1c(O)c(/C=N/c2ncccn2)c(=O)n2c1[nH]c1ccccc12`, for which the TGI in the assay on HS 578T breast, in the assay on RPMI-8226 leukemia, in the assay on OVCAR-5 ovarian, with MOLT-4 leukemia, in the assay on LOX IMVI melanoma and with CCRF-CEM leukemia was above 100 µM in each case. The TGI in the assay on SN12C renal is above 100 µM.

For `CC(=O)Oc1ccc2c3c1O[C@H]1[C@H](O)CC[C@@]4(O)[C@@H](C2)N(C)CC[C@]314`, the TGI in the assay with HS 578T breast, in the assay on RPMI-8226 leukemia, with OVCAR-5 ovarian, in the assay on MOLT-4 leukemia, in the assay on LOX IMVI melanoma and with SN12C renal was above 100 µM each time.

As to `Cc1ccc(N(C)S(=O)(=O)c2ccccc2[N+](=O)[O-])cc1`, the TGI in the assay on RPMI-8226 leukemia, in the assay on OVCAR-5 ovarian, in the assay with LOX IMVI melanoma and with SN12C renal was above 100 µM throughout.

In the case of `CCO/C=N/C1=C(C#N)SC2=N/C(=C\c3ccccc3)C(=O)N21`, the TGI with HS 578T breast, with RPMI-8226 leukemia, in the assay on OVCAR-5 ovarian, in the assay with MOLT-4 leukemia, with LOX IMVI melanoma and in the assay with CCRF-CEM leukemia was above 100 µM throughout. For the same compound, the TGI with SN12C renal was above 100 µM.

For the compound `COC(=O)C12OC3CO[Si](C(C)C)(C(C)C)O[Si](C(C)C)(C(C)C)OC3C1Oc1nc(=O)ccn12` (centres undefined), the TGI is 7.3 µM in the assay with HS 578T breast; 30.8 µM with RPMI-8226 leukemia; 28.6 µM with OVCAR-5 ovarian; 30.8 µM in the assay with MOLT-4 leukemia; 31.6 µM in the assay with LOX IMVI melanoma; 41 µM with CCRF-CEM leukemia. Besides, the TGI with SN12C renal was 32 µM.

On to `CCOP(=O)(OCC)OC1c2[nH]cc(C(=O)OCc3ccccc3)c2-c2cc(C(=O)OC)[nH]c2C1OC` (centres undefined), for which the TGI was above 100 µM in the assay with HS 578T breast; above 100 µM in the assay on RPMI-8226 leukemia; above 96.1 µM in the assay on OVCAR-5 ovarian; above 100 µM with MOLT-4 leukemia; above 41.4 µM in the assay on LOX IMVI melanoma; above 100 µM in the assay on CCRF-CEM leukemia. The same compound yielded a TGI in the assay with SN12C renal above 100 µM.

For the compound `CN(C)Cc1cc(N=Nc2ccc(Cl)cc2)cc(CN(C)C)c1O`, the TGI came out at 27.7 µM with HS 578T breast; 37 µM in the assay on RPMI-8226 leukemia; 10.7 µM in the assay on MOLT-4 leukemia; 16.1 µM in the assay with LOX IMVI melanoma; 7 µM in the assay on CCRF-CEM leukemia; 23.8 µM with SN12C renal.

For the compound `CC1(C)[C@@H]2C[C@H]1c1cnc(-c3ccccn3)cc1C2CCCCC[C@@H]1c2cc(-c3ccccn3)ncc2[C@@H]2C[C@H]1C2(C)C` (some centres undefined), the TGI in the assay with RPMI-8226 leukemia was 19.6 µM; in the assay with OVCAR-5 ovarian, above 100 µM; in the assay with MOLT-4 leukemia, above 100 µM; in the assay with LOX IMVI melanoma it was 19.3 µM; in the assay with CCRF-CEM leukemia, 6.28 µM; in the assay on SN12C renal, above 44.9 µM.

As to `COc1ccc2nc3cccc([N+](=O)[O-])c3c(NCCCO)c2c1`, the GI50 is 4.45 nM and 33 nM in the assay on HS 578T breast; 1.81 nM in the assay on OVCAR-5 ovarian; 3.28 nM and 18.1 nM in the assay with MOLT-4 leukemia; 8.5 nM and 47.1 nM with LOX IMVI melanoma; 5.83 nM and 15.3 nM with CCRF-CEM leukemia; 1.74 nM in the assay on SN12C renal. Further, the TGI was 0.219 µM in the assay with RPMI-8226 leukemia; 0.0177 µM and 0.0148 µM in the assay with OVCAR-5 ovarian; 0.036 µM and 0.0847 µM with MOLT-4 leukemia; 0.0572 µM and 0.133 µM with CCRF-CEM leukemia; 0.0193 µM with SN12C renal.

With `CC1=C(C(=O)N[C@@H](CC(C)C)C(=O)O)N2C(=O)[C@@H](NC(=O)C(N)c3ccccc3)[C@H]2SC1` (some centres undefined), the TGI in the assay with HS 578T breast, in the assay with RPMI-8226 leukemia, in the assay on OVCAR-5 ovarian, with MOLT-4 leukemia, with LOX IMVI melanoma and in the assay with CCRF-CEM leukemia was above 100 µM throughout. This compound displayed a TGI with SN12C renal above 100 µM.

In the case of `O=C1CC(=O)NC(=NNS(=O)(=O)c2ccc(Cl)cc2)N1`, the TGI with HS 578T breast, with RPMI-8226 leukemia, in the assay with OVCAR-5 ovarian, in the assay with MOLT-4 leukemia, with CCRF-CEM leukemia and in the assay with SN12C renal was above 100 µM in each case.

Turning to `C#CC1(O)CCCCCCCCC2(CCCCCCCC1)OCCO2`, the TGI in the assay on HS 578T breast is 38.9 µM; in the assay with RPMI-8226 leukemia, 22 µM; in the assay on OVCAR-5 ovarian, 37.8 µM; in the assay with LOX IMVI melanoma, 38.1 µM; in the assay with SN12C renal, 31.5 µM.

Regarding `Cc1ccc(C(=O)N/N=C(\N=Nc2ccc(C(=O)O)cc2)c2ccc(N(CCC#N)CCC#N)cc2C)cc1`, the TGI in the assay on RPMI-8226 leukemia, with OVCAR-5 ovarian, in the assay on MOLT-4 leukemia, with LOX IMVI melanoma, in the assay on CCRF-CEM leukemia and in the assay with SN12C renal was above 100 µM each time.

Turning to `CCOC(=O)c1c(NC(=S)Nc2ccccc2)sc2c1CCOC2`, the TGI in the assay with HS 578T breast, with RPMI-8226 leukemia, in the assay with OVCAR-5 ovarian, with MOLT-4 leukemia, in the assay with LOX IMVI melanoma and with CCRF-CEM leukemia was above 100 µM each time. The TGI in the assay with SN12C renal was above 100 µM.

The values are drawn from PubChem BioAssay (NCI).
